Assay results as given in ChEMBL document CHEMBL1201862, “PubChem BioAssay data set” (2004).
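1) Cells in 96-well plates. 2) Compound, 48 h, 5 concentrations. 3) Linear interpolation between surrounding doses. 4) Unreached endpoint = highest concentration. Abbreviation: GI50, concentration required for 50% inhibition of growth.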 Activity calls are given as the source filed them. No stated cut-off is given here; in the data, active = GI50 up to about 1.1 µM and inactive = higher.

Tests used:
Assay in all cases: DTP human tumour cell line panel, 48 h
[1] = test system: RPMI-8226
[2] = test system: SF-539
[3] = test system: UO-31
[4] = test system: NCI-H522
[5] = test system: OVCAR-8
[6] = test system: HCT-116
[7] = test system: OVCAR-5
[8] = test system: DLD-1
[9] = test system: SNB-19
[10] = test system: SF-268
[11] = test system: SK-MEL-5
[12] = test system: SK-OV-3
[13] = test system: HCC 2998
[14] = test system: 786-0
[15] = test system: NCI-H23
[16] = test system: SN12C
[17] = test system: MOLT-4
[18] = test system: A498
[19] = test system: NCI-H460
[20] = test system: KM12
[21] = test system: M19-MEL
[22] = test system: HL-60
[23] = test system: SW-620
[24] = test system: EKVX
[25] = test system: HOP-62
[26] = test system: UACC-257
[27] = test system: U-251
[28] = test system: ACHN
[29] = test system: UACC-62
[30] = test system: K562
[31] = test system: SF-295
[32] = test system: OVCAR-4
[33] = test system: Malme-3M
[34] = test system: CAKI-1
[35] = test system: A549
[36] = test system: M14
[37] = test system: LXFL 529
[38] = test system: NCI-H226
[39] = test system: COLO 205
[40] = test system: SK-MEL-2
[41] = test system: OVCAR-3
[42] = test system: KM-20L2
[43] = test system: SNB-78
[44] = test system: LOX IMVI
[45] = test system: SR
[46] = test system: CCRF-CEM
[47] = test system: IGROV-1
[48] = test system: HT-29
[49] = test system: HCT-15
[50] = test system: DMS-114
[51] = test system: TK-10
[52] = test system: SNB-75
[53] = test system: HOP-92
[54] = test system: SK-MEL-28
[55] = test system: RXF 393
[56] = test system: DMS-273
[57] = test system: XF498
[58] = test system: HOP-18

Measured: GI50

CCCCC#COS(=O)(=O)c1ccc(C)cc1
> 100 µM: [49]
inactive: [1] 46.2 µM | [2] > 100 µM | [3] > 100 µM | [4] 54.1 µM | [5] > 100 µM | [6] 82.8 µM | [7] > 100 µM | [8] 57.9 µM | [9] > 100 µM | [10] > 100 µM | [11] > 100 µM | [12] 88.7 µM | [13] > 100 µM | [14] > 100 µM | [15] 92.9 µM | [16] > 100 µM | [17] 88.1 µM | [18] > 100 µM | [19] 79.3 µM | [20] 84.9 µM | [21] 69.7 µM | [22] > 100 µM | [23] > 100 µM | [24] 56.6 µM | [25] > 100 µM | [26] > 100 µM | [27] 86.5 µM | [28] 71.1 µM | [29] > 100 µM | [30] 45.3 µM | [31] > 100 µM | [32] 65.9 µM | [33] > 100 µM | [34] > 100 µM | [35] 44.9 µM | [36] > 100 µM | [37] 64 µM | [38] 14.7 µM | [39] > 100 µM | [40] > 100 µM | [41] > 100 µM | [42] 75.9 µM | [43] > 100 µM | [44] > 100 µM | [45] 53 µM | [46] 30.5 µM | [47] > 100 µM | [48] > 100 µM | [50] 44.1 µM

COCC1N=C(c2ccc(OC)c(OCc3ccccc3)c2OC)O[C@H]1c1ccccc1 (stereo partly specified)
17.5 µM: [49]
inactive: [1] 5.65 µM | [2] 17.4 µM | [3] 4.89 µM | [4] 20.8 µM | [5] 23.1 µM | [6] 11.9 µM | [7] 25 µM | [8] 20.6 µM | [9] 29.9 µM | [10] 25.8 µM | [11] 11.9 µM | [12] 46.6 µM | [13] 35.6 µM | [14] 29.9 µM | [15] 17.7 µM | [16] 20.5 µM | [17] 5.81 µM | [18] 6.19 µM | [19] 11.1 µM | [20] 21.2 µM | [21] 17.4 µM | [22] 15.2 µM | [23] 34.8 µM | [24] 34 µM | [25] 37.2 µM | [51] 35.2 µM | [27] 18.1 µM | [52] 25.3 µM | [28] 12.9 µM | [53] 13.1 µM | [29] 15.8 µM | [30] 12.3 µM | [31] 25.6 µM | [32] 20.5 µM | [54] 20.7 µM | [35] 24.5 µM | [36] 14.6 µM | [37] 14.8 µM | [38] 29 µM | [39] 18.1 µM | [40] 23.4 µM | [41] 16 µM | [42] 17.9 µM | [43] 29.1 µM | [44] 13.9 µM | [55] 29.3 µM | [46] 15.3 µM | [47] 32.4 µM | [48] 19.8 µM | [50] 12.2 µM | [56] 15.8 µM

BrC1=CCC23CC=C(Br)[C@H]4CC2(COC3)C[C@@H]1O4 (stereo partly specified)
47.9 µM: [49]
inactive: [1] 39.6 µM | [2] 84.9 µM | [3] 28.2 µM | [4] 24.3 µM | [5] 63.8 µM | [6] 29.2 µM | [7] 21.2 µM | [9] 37.9 µM | [10] 16.9 µM | [11] > 100 µM | [14] 33.2 µM | [15] 37.2 µM | [16] 52 µM | [17] 25.8 µM | [19] 48 µM | [20] 54.2 µM | [21] > 100 µM | [22] 6.41 µM | [23] 55 µM | [24] > 100 µM | [25] > 100 µM | [51] 80.2 µM | [27] 79.3 µM | [52] 20.1 µM | [28] > 100 µM | [29] 46.1 µM | [30] 27.5 µM | [31] > 100 µM | [32] 27 µM | [33] > 100 µM | [54] 22.6 µM | [35] > 100 µM | [36] > 100 µM | [37] 40.3 µM | [38] 44.1 µM | [39] > 100 µM | [40] 54.7 µM | [41] 63.5 µM | [42] 59.3 µM | [43] 35.2 µM | [44] 71.6 µM | [45] 23.4 µM | [55] 32 µM | [46] 24.4 µM | [47] > 100 µM | [48] > 10 µM | [57] 76.6 µM | [50] 28.4 µM | [56] 36.7 µM

CCCn1cc2c(SC)nc(SC)nc2n1
inactive: [1] > 100 µM | [2] > 100 µM | [3] > 100 µM | [5] > 100 µM | [6] > 100 µM | [7] > 100 µM | [8] > 100 µM | [9] > 100 µM | [58] > 100 µM | [10] > 100 µM | [11] > 100 µM | [13] > 100 µM | [15] > 100 µM | [16] > 100 µM | [17] > 100 µM | [18] > 100 µM | [19] > 100 µM | [20] > 100 µM | [22] > 100 µM | [23] > 100 µM | [24] > 100 µM | [26] > 100 µM | [51] > 100 µM | [27] > 100 µM | [52] > 100 µM | [28] > 100 µM | [53] > 100 µM | [30] > 100 µM | [31] > 100 µM | [32] > 100 µM | [33] > 100 µM | [54] > 100 µM | [34] > 100 µM | [35] > 100 µM | [36] > 100 µM | [38] 32.2 µM | [39] > 100 µM | [40] > 100 µM | [43] > 100 µM | [44] > 100 µM | [45] > 100 µM | [55] > 100 µM | [46] > 100 µM | [47] > 100 µM | [48] > 100 µM | [57] > 100 µM | [50] > 100 µM | [56] > 100 µM
> 100 µM: [49]
